Source: article PMC5225454, “A Comprehensive Evaluation of the Activity and Selectivity Profile of Ligands for RGD-binding Integrins” (Scientific Reports, 2017)
Read-outs that look alike come from different tables or passages of the source. Positions of bridges follow the written chain, without caps; N, C: chain ends. Non-standard residues stand in square brackets, D forms with d. Residues, ends and D or L forms follow the SMILES beside them. Groups on a side chain read outwards from the residue. *: point of attachment. X2 = NC(=O)COCC(=O)NCCOCCOCCOCCN*; dPhg = N[C@@H](C(=O)O)c1ccccc1; AEEA = NCCOCCOCC(=O)O; Mpa = O=C(O)CCS

How the values were obtained:
α5β1 integrin = α5β1 integrin (Homo sapiens, UniProt P05556+P08648); assay: ELISA-like solid-phase binding assay, soluble integrin α5β1 vs coated fibronectin; set-up: purchased R&D
[1] = target: T1, human platelet integrin αIIbβ3 (Homo sapiens, UniProt P05106+P08514); assay: ELISA-like solid-phase binding assay, soluble integrin αIIbβ3 vs coated fibrinogen; details: referenced to internal standard
T1 construct: purchased VWR

human αvβ3-integrin = target: T2, human αvβ3-integrin (Homo sapiens, UniProt P05106+P06756); assay: ELISA-like solid-phase binding assay, soluble integrin αvβ3 vs coated vitronectin; details: coated vitronectin, soluble integrin; referenced to internal standard
T2 construct: purchased R&D

human αvβ8-Integrin = target: T3, human αvβ8-Integrin (Homo sapiens, UniProt P06756+P26012); assay: ELISA-like solid-phase binding assay, soluble integrin αvβ8 vs coated LAP (TGF-β); details: referenced to internal standard
T3 construct: purchased R&D

human αvβ6-Integrin = target: T4, human αvβ6-Integrin (Homo sapiens, UniProt P06756+P18564); assay: ELISA-like solid-phase binding assay, soluble integrin αvβ6 vs coated LAP (TGF-β); details: for IC50: coated LAP, soluble integrin, referenced to internal standard
T4 construct: purchased R&D

human αvβ5-integrin = target: T5, human αvβ5-integrin (Homo sapiens, UniProt P06756+P18084); assay: ELISA-like solid-phase binding assay, soluble integrin αvβ5 vs coated vitronectin; details: referenced to internal standard
T5 construct: purchased Millipore

[2] = coated fibronectin, soluble integrin, referenced to internal standard, read-out: IC50 α5β1

T1 sequence (P08514 32-1039): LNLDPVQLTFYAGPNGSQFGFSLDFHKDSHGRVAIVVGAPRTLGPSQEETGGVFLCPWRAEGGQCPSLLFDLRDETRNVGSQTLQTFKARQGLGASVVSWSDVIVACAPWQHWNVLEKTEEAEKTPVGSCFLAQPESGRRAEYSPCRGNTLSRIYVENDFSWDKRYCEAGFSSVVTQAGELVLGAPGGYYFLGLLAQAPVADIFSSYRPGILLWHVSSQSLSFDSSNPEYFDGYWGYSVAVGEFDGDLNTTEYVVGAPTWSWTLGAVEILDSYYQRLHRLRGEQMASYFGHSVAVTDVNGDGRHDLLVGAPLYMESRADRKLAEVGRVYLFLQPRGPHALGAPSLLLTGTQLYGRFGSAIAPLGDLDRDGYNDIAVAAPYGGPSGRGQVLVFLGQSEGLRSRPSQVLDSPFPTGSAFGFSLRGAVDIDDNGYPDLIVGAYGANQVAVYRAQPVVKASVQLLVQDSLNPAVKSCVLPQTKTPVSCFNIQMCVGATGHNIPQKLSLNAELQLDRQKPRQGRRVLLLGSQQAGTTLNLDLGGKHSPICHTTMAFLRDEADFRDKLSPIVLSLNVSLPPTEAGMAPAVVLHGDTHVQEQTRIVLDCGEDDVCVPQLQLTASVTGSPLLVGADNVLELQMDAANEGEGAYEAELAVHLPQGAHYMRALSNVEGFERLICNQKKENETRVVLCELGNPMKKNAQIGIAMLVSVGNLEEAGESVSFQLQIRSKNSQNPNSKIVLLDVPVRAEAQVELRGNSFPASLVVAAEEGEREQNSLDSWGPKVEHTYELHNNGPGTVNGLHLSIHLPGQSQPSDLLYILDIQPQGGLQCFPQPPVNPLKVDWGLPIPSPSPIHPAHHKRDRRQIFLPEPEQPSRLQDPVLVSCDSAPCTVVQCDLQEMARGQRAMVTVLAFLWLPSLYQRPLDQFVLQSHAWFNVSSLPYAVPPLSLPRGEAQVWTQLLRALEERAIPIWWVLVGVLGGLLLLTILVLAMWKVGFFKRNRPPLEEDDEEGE
T1 sequence (P05106 27-788): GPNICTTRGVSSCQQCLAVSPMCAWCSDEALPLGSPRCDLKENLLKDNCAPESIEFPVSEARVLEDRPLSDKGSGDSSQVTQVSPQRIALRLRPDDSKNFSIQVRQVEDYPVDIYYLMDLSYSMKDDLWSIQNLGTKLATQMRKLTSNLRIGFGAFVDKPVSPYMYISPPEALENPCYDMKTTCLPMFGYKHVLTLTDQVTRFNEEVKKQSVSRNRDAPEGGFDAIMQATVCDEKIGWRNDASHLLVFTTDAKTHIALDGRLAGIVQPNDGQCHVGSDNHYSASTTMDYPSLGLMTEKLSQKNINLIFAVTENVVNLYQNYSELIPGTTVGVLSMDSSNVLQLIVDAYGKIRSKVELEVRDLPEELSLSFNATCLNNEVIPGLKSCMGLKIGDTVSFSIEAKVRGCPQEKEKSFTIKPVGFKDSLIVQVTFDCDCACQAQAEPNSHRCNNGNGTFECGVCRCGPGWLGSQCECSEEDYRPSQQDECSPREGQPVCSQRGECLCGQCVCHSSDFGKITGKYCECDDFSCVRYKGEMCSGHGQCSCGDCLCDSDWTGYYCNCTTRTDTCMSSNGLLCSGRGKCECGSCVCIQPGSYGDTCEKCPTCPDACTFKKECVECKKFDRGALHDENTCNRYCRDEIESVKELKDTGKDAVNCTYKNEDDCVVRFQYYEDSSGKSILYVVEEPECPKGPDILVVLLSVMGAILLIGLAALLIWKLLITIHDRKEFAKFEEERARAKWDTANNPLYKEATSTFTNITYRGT
T5 sequence (P06756 31-1048): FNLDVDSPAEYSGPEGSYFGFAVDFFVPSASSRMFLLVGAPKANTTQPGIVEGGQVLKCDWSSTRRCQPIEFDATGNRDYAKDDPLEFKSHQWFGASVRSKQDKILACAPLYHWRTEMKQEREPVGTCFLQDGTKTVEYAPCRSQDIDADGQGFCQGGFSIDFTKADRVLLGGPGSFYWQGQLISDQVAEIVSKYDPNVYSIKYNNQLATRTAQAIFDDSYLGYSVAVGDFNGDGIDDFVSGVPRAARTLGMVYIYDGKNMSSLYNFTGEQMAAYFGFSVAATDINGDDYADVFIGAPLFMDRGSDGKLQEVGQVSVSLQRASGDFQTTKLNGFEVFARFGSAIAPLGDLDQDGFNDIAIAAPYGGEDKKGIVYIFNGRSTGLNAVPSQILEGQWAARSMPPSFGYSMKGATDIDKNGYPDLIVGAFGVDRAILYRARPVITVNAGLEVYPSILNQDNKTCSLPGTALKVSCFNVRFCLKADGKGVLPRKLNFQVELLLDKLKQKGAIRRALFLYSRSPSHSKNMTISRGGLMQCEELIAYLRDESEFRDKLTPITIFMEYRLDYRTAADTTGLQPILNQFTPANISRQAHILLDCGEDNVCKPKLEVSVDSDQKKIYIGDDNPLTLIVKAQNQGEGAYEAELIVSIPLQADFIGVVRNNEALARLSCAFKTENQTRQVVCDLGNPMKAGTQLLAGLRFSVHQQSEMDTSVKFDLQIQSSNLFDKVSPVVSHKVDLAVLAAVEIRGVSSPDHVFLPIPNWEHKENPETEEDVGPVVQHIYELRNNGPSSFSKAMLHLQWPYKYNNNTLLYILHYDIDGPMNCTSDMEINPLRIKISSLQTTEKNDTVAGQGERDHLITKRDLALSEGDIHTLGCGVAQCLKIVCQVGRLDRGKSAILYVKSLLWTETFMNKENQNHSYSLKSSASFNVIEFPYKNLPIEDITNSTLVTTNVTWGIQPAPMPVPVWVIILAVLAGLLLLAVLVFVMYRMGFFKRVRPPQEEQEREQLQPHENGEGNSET
T5 sequence (P18084 24-799): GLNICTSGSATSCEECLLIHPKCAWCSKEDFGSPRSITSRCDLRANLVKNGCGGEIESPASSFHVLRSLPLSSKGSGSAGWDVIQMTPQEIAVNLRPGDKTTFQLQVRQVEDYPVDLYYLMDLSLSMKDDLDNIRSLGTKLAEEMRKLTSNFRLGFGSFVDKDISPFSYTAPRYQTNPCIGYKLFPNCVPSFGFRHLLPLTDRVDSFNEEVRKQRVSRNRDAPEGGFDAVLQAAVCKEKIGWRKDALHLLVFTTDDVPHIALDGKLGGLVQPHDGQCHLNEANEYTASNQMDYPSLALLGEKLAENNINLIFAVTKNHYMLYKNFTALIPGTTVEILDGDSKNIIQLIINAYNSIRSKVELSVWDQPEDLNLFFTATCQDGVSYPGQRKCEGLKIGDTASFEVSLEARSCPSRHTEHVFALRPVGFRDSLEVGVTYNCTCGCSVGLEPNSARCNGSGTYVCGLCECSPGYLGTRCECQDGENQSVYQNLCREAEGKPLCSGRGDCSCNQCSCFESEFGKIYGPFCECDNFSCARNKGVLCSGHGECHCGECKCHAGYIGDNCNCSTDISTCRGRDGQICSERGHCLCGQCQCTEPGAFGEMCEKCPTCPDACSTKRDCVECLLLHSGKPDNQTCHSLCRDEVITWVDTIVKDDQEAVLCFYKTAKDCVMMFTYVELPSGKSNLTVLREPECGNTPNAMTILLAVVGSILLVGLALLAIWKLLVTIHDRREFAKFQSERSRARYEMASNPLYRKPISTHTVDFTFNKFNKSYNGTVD

Row | Compound | IC50 (α5β1 integrin; [2]) | IC50 [1] | IC50 αIIbβ3 [1] | IC50 (human αvβ3-integrin) | IC50 (human αvβ8-Integrin) | IC50 αvβ8 (human αvβ8-Integrin) | IC50 (human αvβ6-Integrin) | IC50 (human αvβ5-integrin) | fold change of α5β1 IC50-value after functionalization (α5β1 integrin; versus c(phgisoDGRk)) | fold change of αvβ6 IC50-value after functionalization (human αvβ6-Integrin; versus c(phgisoDGRk)) | IC50 (α5β1 integrin)
1 | C[C@H](N)C(=O)N[C@H]1CSSC[C@@H](C(=O)NCC(=O)O)NC(=O)[C@H](Cc2ccccc2)NC(=O)[C@@H]2CSSC[C@H](NC(=O)[C@H](CC(=O)O)NC1=O)C(=O)N[C@@H](CCCNC(=N)N)C(=O)NCC(=O)N[C@@H](CC(=O)O)C(=O)N2 [RGD-4C] (H-ACDCRGDCFCG-OH; disulfide 2-10, 4-8) | 244 ± 37 nM | > 10000 nM | no affinity | 8.3 ± 2.1 nM | > 10000 nM | no affinity | 380 ± 44 nM | 46 ± 11 nM |  |  | 
2 | CC(C)C[C@H](NC(=O)[C@H](CO)NC(=O)[C@H](CC(=O)O)NC(=O)[C@H](CC(C)C)NC(=O)[C@H](CC(=O)O)NC(=O)[C@@H](NC(=O)[C@@H](N)CCCNC(=N)N)[C@@H](C)O)C(=O)N[C@@H](CCCNC(=N)N)C(=O)N[C@H](C(=O)O)[C@@H](C)O | > 10000 nM | > 10000 nM |  | 6230 ± 540 nM | 320 ± 25 nM |  |  | > 10000 nM |  |  | 
3 | N=C(N)NCCC[C@@H]1NC(=O)CNC(=O)C[C@@H](C(=O)O)NC(=O)[C@@H](c2ccccc2)NC(=O)[C@@H](CCCCNC(=O)COCCOCCNC(=O)CCS)NC1=O [c(phgisoDGRk)-Peg-MPA] (GR[dK]([AEEA-Mpa])[dPhg]D-OH; lactam N-5) | 31 ± 3.4 nM | > 10000 nM |  | > 10000 nM | > 10000 nM |  | 52 ± 4.8 nM | > 10000 nM | 2 fold | 2 fold | 
4 | N=C(N)NCCC[C@@H]1NC(=O)[C@H](CS)NC(=O)[C@@H](Cc2ccccc2)NC(=O)[C@H](CC(=O)O)NC(=O)CNC1=O [c(RGDfC)] (cyclo(RGD[dF]C)) | 215 ± 55 nM | > 10000 nM |  | 6.3 ± 0.5 nM | > 10000 nM |  | 121 ± 10 nM | 433 ± 23 nM |  |  | 
5 | N=C(N)NCCC[C@@H]1NC(=O)CNC(=O)C[C@@H](C(=O)O)NC(=O)[C@@H](c2ccccc2)NC(=O)[C@@H](CCCCN)NC1=O [c(phgisoDGRk)] (GR[dK][dPhg]D-OH; lactam N-5) | 9.43 ± 1.33 nM | > 10000 nM |  | > 10000 nM | 77 ± 6 nM |  | 18 ± 2.5 nM | > 10000 nM |  |  | 
6 | CC(C)C[C@H](NC(=O)[C@H](CC(=O)O)NC(=O)CNC(=O)[C@H](CCCNC(=N)N)NC(=O)[C@H](CC(C)C)NC(=O)[C@H](CC(N)=O)NC(=O)[C@@H]1CCCN1C(=O)[C@@H](NC(=O)[C@H](C)NC(=O)[C@@H](N)CC(N)=O)C(C)C)C(=O)N[C@@H](CCC(N)=O)C(=O)N[C@H](C(=O)N[C@@H](CC(C)C)C(=O)N[C@@H](C)C(=O)N[C@@H](CCC(N)=O)C(=O)N[C@@H](CCCCN)C(=O)N[C@H](C(=O)N[C@@H](C)C(=O)N[C@@H](CCCNC(=N)N)C(=O)N[C@H](C(=O)O)[C@@H](C)O)C(C)C)C(C)C [A20FMDV2] |  |  |  |  |  |  |  |  |  |  | > 10000 nM
7 | C[C@@H](O)[C@H](NC(=O)[C@H](CC(=O)O)NC(=O)CNC(=O)[C@H](CCCNC(=N)N)NC(=O)CN)C(=O)N1CCC[C@H]1C(=O)O [GRGDTP] (H-GRGDTP-OH) | 84 ± 12 nM | > 10000 nM |  | 28 ± 5 nM | > 10000 nM |  | > 10000 nM | 423 ± 65 nM |  |  | 
8 | N=C(N)NCCC[C@H](NC(=O)CN)C(=O)NCC(=O)N[C@@H](CC(=O)O)C(=O)O [GRGD] (H-GRGD-OH) | 137 ± 14 nM | > 10000 nM |  | 55 ± 7 nM | > 10000 nM |  | > 10000 nM | 580 ± 23 nM |  |  | 
9 | N=C(N)NCCC[C@@H]1NC(=O)[C@H](CCCCNC(=O)CCOCCOCCOCCOCCOCCOCCNC(=O)CCS)NC(=O)[C@@H](Cc2ccccc2)NC(=O)[C@H](CC(=O)O)NC(=O)CNC1=O [c(RGDfK)-Peg-MPA] | 201 ± 31 nM | > 10000 nM |  | 15 ± 1.8 nM | > 10000 nM |  | 422 ± 44 nM | 390 ± 53 nM |  |  | 
10 | Echistatin | 0.57 ± 0.19 nM | 0.9 ± 0.24 nM |  | 0.46 ± 0.14 nM | 12.8 ± 2.5 nM |  |  | 1.4 ± 0.2 nM |  |  | 
11 | N=C(N)c1ccc(N2CCN(C3CCN(CC(=O)O)CC3)CC2)cc1 [GR144053, 4-[4-[4-(aminoiminomethyl)phenyl]-1-piperazinyl]-1-piperidineacetic acid] | > 10000 nM | 18 ± 2.2 nM |  | > 10000 nM | > 10000 nM |  | > 10000 nM | > 10000 nM |  |  | 
12 | N=C(N)NCCC[C@@H]1NC(=O)[C@@H]2CSSC[C@H](NC(=O)[C@H](CC(=O)O)NC(=O)CNC1=O)C(=O)N[C@@H](Cc1ccccc1)C(=O)N[C@H](C(=O)NCCOCCOCCOCCNC(=O)COCC(N)=O)CSCC(=O)N[C@@H](CCCCN)C(=O)N2 [NC100717] ({CH2CO}-KCRGDCFC-X2; disulfide 2-6; thioether N-8; N-terminus and C-terminus assumed) | 820 ± 156 nM | > 10000 nM |  | 1.1 ± 0.1 nM | > 10000 nM |  | > 10000 nM | 16.7 ± 2.1 nM |  |  | 
